{"source": "patent US10725042B2", "about": "“Methods of diagnosing and treating cancer” (Case Western Reserve University, priority 2012, dated 2020)", "test_system": "uracil in DNA of UDG−/− cells", "test": "Uracil in DNA by HPLC/MS/MS, UDG−/− cells", "assay_type": "cell-based, human", "protocol": "UDG^−/− and UDG^+/+ cells were exposed to pemetrexed (10 μM) or 5-fluorouracil (10 μM) for 6, 24, 48 and 72 hrs. At indicated time points, cells were harvested and genomic DNA was extracted by phenol/chloroform. Forty μg of DNA were incubated with 10 U of purified UDG (New England Biolabs) in 60 μL of reaction buffer at 37° C. for 2 hrs. The reaction products were dried at 35° C. in a Turbovap under a stream of nitrogen and reconstituted in 150 μL 90% acetonitrile. The analyte was retained by an Atlantis Hilis Silica analytical column (2.1×100 mm, 3.5 μM) and eluted isocratically by a mixture of 90% acetonitrile and 10% 2.0 mM ammonium formate at a flow rate of 0.2 ml/min. The detection was done by an API 3200 MS/MS mass spectrometer."}
{"smiles": "Nc1nc2[nH]cc(CCc3ccc(C(=O)N[C@@H](CCC(=O)O)C(=O)O)cc3)c2c(=O)[nH]1", "note": "[pemetrexed]", "values": [{"measurement": "uracil detected in DNA", "setting": "UDG−/− cells, drug 10 μM, 6-72 hr", "value": "significant amount of uracil"}, {"measurement": "uracil accumulation compared to UNG+/+ controls", "setting": "UNG−/− human cancer cells exposed to pemetrexed", "value": "up to 40 fold"}]}
